Values joined by “and” are separate entries in the source; they are usually repeats but may differ in a detail not shown here. Identical values can stand only once. Residues, ends and D or L forms follow the SMILES beside them.
Experiments:
wild-type HK-2 cells = test: in vitro; format: cell-based, human
Procedure: (§1) Fig. 6 Transcriptomic changes in human kidney proximal tubular HK-2 cells following treatments with polymyxin B (PMB), colistin (COL), F287, F319, and F365. a Numbers of differentially expressed genes. Distinctive intersections are color-coded. b Cell viability difference (two-tailed Student’s t-test, n = 4 biologically independent cells, Benjamini–Hochberg adjusted P-values) between wild-type HK-2 and KCNJ16 knockout (KO) cells following 24 h treatment with lipopeptides. n.s., not significant; ^*adjusted P < 0.05, ^**adjusted P < 0.01, ^***adjusted P < 0.001. Data are shown as mean ± s.d. and individual data points. c Extracted transcriptional regulatory network from Signor database with 1-step neighbor constraints (enlarged for detail). Source data are provided as a Source Data file.

in vitro = format: cell-based, human; conditions: human, wild-type HK-2 cells (kidney proximal tubular), Cell viability, WT
Procedure: as §1

Swiss mice = test: Acute toxicity in mice (maximum tolerated dose, IV bolus); format: in vivo, mouse; conditions: replicates 1-4
Procedure, shortened: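 Female Swiss mice (7 weeks, 22–28 g) given single IV tail-vein bolus of lipopeptide in 0.9% saline, dosed as mg/kg free base. Clinical toxicity signs monitored over 0–24 h, most frequently in first 2 h.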

[1] = test system: K. pneumoniae FADDI-KP032; format: cell-based, Klebsiella pneumoniae; conditions: carbapenem-resistant isolate
Procedure, shortened: (§2)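 Each strain is tested in cation-adjusted Mueller–Hinton broth using the micro-dilution technique, and growth inhibition gives the MIC.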

[2] = test system: K. pneumoniae FADDI-KP065; format: cell-based, Klebsiella pneumoniae; conditions: carbapenem-resistant isolate
Procedure, shortened: as §2

[3] = test system: MDR clinical isolates of Enterobacterales (n = 177, 152 carbapenem-resistant); test: Extended MIC screening, MDR clinical isolates; format: cell-based
Procedure: MICs were determined in cation-adjusted Mueller–Hinton broth (CaMHB) by the broth micro-dilution method against ATCC strains and clinical isolates. MICs in the presence of Survanta® were determined as described above against P. aeruginosa ATCC 27853. In the 100 μL of fresh CaMHB containing polymyxins, 10% Survanta® (v/v, 2.5 mg/mL phospholipids) was added. MICs in the presence and absence of Survanta® were compared to determine the effect of binding to lung surfactant on the antibacterial activity of polymyxins.

P. aeruginosa ATCC 27853 = test: Neutropenic mouse bloodstream infection model; format: in vivo; conditions: single IV dose 4 mg/kg
Procedure, shortened: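 Female Swiss mice made neutropenic with cyclophosphamide (150 mg/kg day −4, 100 mg/kg day −1), infected IV with 50 µL of 4 × 10^8 CFU/mL. Lipopeptide 4 mg/kg (free base) IV at 2 h post-inoculation, n = 3. Efficacy = Δlog10 CFU/mL blood versus saline at 4 h post-dose.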

[4] = Cell viability after 24 h treatment; format: cell-based, human; conditions: human, KCNJ16 knockout HK-2 cells (kidney proximal tubular), Cell viability, KCNJ16 KO, KCNJ16 knockout HK-2 cells, 24 h, Fig. 6b
Procedure: as §1

[5] = test system: KCNJ16 knockout HK-2 cells; test: Cell viability after 24 h treatment; format: cell-based, human; conditions: 24 h treatment
Procedure: as §1

A. baumannii AB5075 = test: In vitro passaging, emergence of resistance; format: cell-based, Acinetobacter baumannii
Procedure: Log-phase cultures (OD600 = 0.5, ~10^8 CFU/mL) of A. baumannii AB5075 were inoculated (1:10, v/v) in 200 μL fresh CaMHB (cation-adjusted Mueller–Hinton broth) containing 2, 8 and 16 μg/mL polymyxin B, colistin, F287, and F365 in a 96-well microplate with 4 biological replicates. The cultures were incubated at 37 °C for 12 h before the next dilution (1:10, v/v) with fresh CaMHB. Successive subculturing was conducted for 7 days.

CC[C@@H]1NC(=O)[C@@H](CC(C)C)NC(=O)[C@H](CCN)NC(=O)[C@@H](NC(=O)[C@H](CN)NC(=O)[C@@H](NC(=O)[C@H](CCN)NC(=O)c2ccc(Cl)cc2Cl)[C@@H](C)O)CCNC(=O)[C@H]([C@@H](C)O)NC(=O)[C@H](CCN)NC(=O)[C@H](CCN)NC1=O [Lipopeptide F365] (HELM PEPTIDE1{[O=C(c1ccc(Cl)cc1Cl)[*:2]].[Dab].T.[NC[C@H](N[*:1])C(=O)[*:2]].[Dab].[Dab].[dL].[Abu].[Dab].[Dab].T}$PEPTIDE1,PEPTIDE1,5:R3-11:R2$$$V2.0)
effect on cell viability (wild-type HK-2 cells): no effect on cell viability | viability at 24 h (in vitro; Rep1): 96.4% | viability at 24 h (in vitro; Rep2): 95.4% | viability at 24 h (in vitro; Rep4): 95.1% | MTD, single replicate (Swiss mice): 10.1 mg/kg | MIC K. pneumoniae FADDI-KP032 [1]: <0.125 µg/mL | MIC K. pneumoniae FADDI-KP065 [2]: <0.125 µg/mL | Number of isolates ([3]; isolates with MIC 0.05 µg/mL): 0 | Number of isolates ([3]; isolates with MIC 0.125 µg/mL): 9 | Number of isolates ([3]; isolates with MIC 0.25 µg/mL): 68 | Number of isolates ([3]; isolates with MIC 0.5 µg/mL): 72 | Number of isolates ([3]; isolates with MIC 1 µg/mL): 5 | Number of isolates ([3]; isolates with MIC 2 µg/mL): 1 | Number of isolates ([3]; isolates with MIC 4 µg/mL): 2 | Number of isolates ([3]; isolates with MIC 8 µg/mL): 0 | Number of isolates ([3]; isolates with MIC 16 µg/mL): 5 | Number of isolates ([3]; isolates with MIC 32 µg/mL): 2 | Number of isolates ([3]; isolates with MIC 64 µg/mL): 4 | Number of isolates ([3]; isolates with MIC >64 µg/mL): 6 | Log10 CFU/mL blood at 4 h, Mean (P. aeruginosa ATCC 27853; 4 h): 4.36 Log10 CFU/mL blood | Δlog10 CFU/mL blood (mean) (P. aeruginosa ATCC 27853; 4 h, treated minus control, mean of replicates, 4 mg/kg): −3.44 log10 CFU/mL blood | Log10 CFU/mL blood at 4 h, single mouse (P. aeruginosa ATCC 27853; 4 h, 4 mg/kg): 5.03 Log10 CFU/mL blood and 4.95 Log10 CFU/mL blood and 3.10 Log10 CFU/mL blood | Delta Log10 CFU/mL blood at 4 h, single mouse (P. aeruginosa ATCC 27853; treated mouse minus mean of vehicle mice, 4 mg/kg): -2.77 Log10 CFU/mL blood and -2.85 Log10 CFU/mL blood and -4.70 Log10 CFU/mL blood | viability at 24 h ([4]; Rep1, replicate 1, read-out: Cell viability, KCNJ16 KO, Rep1): 76% | viability at 24 h ([4]; Rep2, replicate 2, read-out: Cell viability, KCNJ16 KO, Rep2): 94.1% | viability at 24 h ([4]; Rep3, replicate 3, read-out: Cell viability, KCNJ16 KO, Rep3): 100% | viability at 24 h ([4]; Rep4, replicate 4, read-out: Cell viability, KCNJ16 KO, Rep4): 73.7% | effect on cell viability [5]: no effect on cell viability | OD600 (A. baumannii AB5075; 8 ug/mL, time 0 h, passage 0, replicates rep1-rep4, raw OD600 (blank OD600 0.125333)): 0.207 and 0.177 and 0.165 and 0.164 | OD600 (A. baumannii AB5075; 8 ug/mL, time 12 h, passage 1, replicates rep1-rep4, raw OD600 (blank OD600 0.114667)): 0.193 and 0.169 and 0.147 and 0.152 | OD600 (A. baumannii AB5075; 8 ug/mL, time 24 h, passage 2, replicates rep1-rep4, raw OD600 (blank OD600 0.0956667)): 0.091 and 0.092 and 0.09 | OD600 (A. baumannii AB5075; 8 ug/mL, time 36 h, passage 3, replicates rep1-rep4, raw OD600 (blank OD600 0.088)): 0.091 and 0.09 and 0.092 | OD600 (A. baumannii AB5075; 8 ug/mL, time 48 h, passage 4, replicates rep1-rep4, raw OD600 (blank OD600 0.104667)): 0.091 and 0.094 and 0.101 | OD600 (A. baumannii AB5075; 8 ug/mL, time 60 h, passage 5, replicates rep1-rep4, raw OD600 (blank OD600 0.122333)): 0.112 and 0.116 and 0.106 and 0.123 | OD600 (A. baumannii AB5075; 8 ug/mL, time 72 h, passage 6, replicates rep1-rep4, raw OD600 (blank OD600 0.095)): 0.092 and 0.085 and 0.096 | OD600 (A. baumannii AB5075; 8 ug/mL, time 84 h, passage 7, replicates rep1-rep4, raw OD600 (blank OD600 0.091)): 0.089 and 0.091 and 0.092 and 0.093 | OD600 (A. baumannii AB5075; 8 ug/mL, time 96 h, passage 8, replicates rep1-rep4, raw OD600 (blank OD600 0.0953333)): 0.09 and 0.092 and 0.097 and 0.093 | OD600 (A. baumannii AB5075; 8 ug/mL, time 108 h, passage 9, replicates rep1-rep4, raw OD600 (blank OD600 0.100667)): 0.111 and 0.118 and 0.121 and 0.105 | OD600 (A. baumannii AB5075; 8 ug/mL, time 120 h, passage 10, replicates rep1-rep4, raw OD600 (blank OD600 0.0983333)): 0.118 and 0.132 and 0.121 and 0.13 | OD600 (A. baumannii AB5075; 8 ug/mL, time 132 h, passage 11, replicates rep1-rep4, raw OD600 (blank OD600 0.0843333)): 0.12 and 0.124 and 0.123 and 0.117 | OD600 (A. baumannii AB5075; 8 ug/mL, time 144 h, passage 12, replicates rep1-rep4, raw OD600 (blank OD600 0.091)): 0.126 and 0.122 and 0.125 and 0.13 | OD600 (A. baumannii AB5075; 8 ug/mL, time 156 h, passage 13, replicates rep1-rep4, raw OD600 (blank OD600 0.129)): 0.117 and 0.116 and 0.13 and 0.112 | OD600 (A. baumannii AB5075; 8 ug/mL, time 168 h, passage 14, replicates rep1-rep4, raw OD600 (blank OD600 0.101)): 0.095 and 0.092 | time to emergence of resistance (A. baumannii AB5075; 4× MIC, 7-day passaging): ≤ 3 days | growth over 7 days (A. baumannii AB5075; 32× MIC): No growth | OD600 (A. baumannii AB5075; in vitro passaging, concentration 8 ug/mL, time 168 h, passage 14, individual replicates rep1-rep4, not blank-subtracted (blank OD600 0.101)): 0.093 and 0.094

Source: publication PMC8956739, “A synthetic lipopeptide targeting top-priority multidrug-resistant Gram-negative pathogens” (Nature Communications, 2022)
